Test results as given in article PMC12426922, “Fingerprinting the Intestinal Transport of Low-Molecular-Mass Advanced Glycation End-Products (AGEs) Using a Caco‑2 Transwell Model” (Journal of Agricultural and Food Chemistry, 2025).
Read-outs that look alike come from different tables or passages of the source. Marks after values point to notes of the source that are not given here.

Key:
[1] = tested on: differentiated Caco-2 cells; assay: WST-1 cytotoxicity assay, viability of differentiated Caco-2 cells after 2 h exposure; format: cell-based, Human; settings: for concentration that did not significantly affect cell viability: for the mixture: concentration of each AGE
Description: (§1) Human colon carcinoma cells (Caco-2 cells) were obtained from the American Type Culture Collection (ATCC, Rockville, MD, USA). Caco-2 cells were cultured in complete culture medium, composed of DMEM GlutaMAX with 10% FBS (v/v), 1% P/S (v/v), and 1% NEAA (v/v) at 37 °C in a 5% (v/v) CO2 incubator. In this study, Caco-2 cells within passages 10–15 were utilized.
The WST-1 assay was used to quantify the viability of differentiated Caco-2 cells upon exposure to the individual AGEs and their equimolar mixture. To this end, Caco-2 cells were seeded in 96-well plates at 3 × 10^4 cells/well (100 μL) and incubated at 37 °C under 5% (v/v) CO2 for 20 days. The complete culture medium was refreshed on each alternate day. After full differentiation, the culture medium was removed, and the cells were washed with HBSS (containing 1% (v/v) HEPES) twice on the testing day. The same volume (100 μL) of HBSS containing a series of concentrations of the different individual test compounds or of a mixture containing all 10 AGEs was added from a 20-times-concentrated stock solution in HBSS. The test concentrations were designed based on the estimated daily intake of total AGEs (0.55–0.66 mg/(kg·day)) and high-exposure scenarios (1.4–1.8 mg/(kg day)). […] After exposure for 2 h, the absorbance at 440 and 620 nm was measured in a plate spectrophotometer (Molecular Devices, San Jose, CA, USA, Spectra Max M2). After measurement, the cell viability was calculated as cell viability (%)=(Atested 440 nm−Atested 620 nm)/(Acontrol 440 nm−Acontrol 620 nm)×100

PepT1 = assay: Transport of AGE mixture across Caco-2 cell layer (transwell, apical to basolateral); format: in vitro ADME, Human; settings: human, mixture, each AGE 100 μmol/L; for recovery at 2 h, 100 μmol/L: Caco-2, with Gly-Sar 10 mmol/L (apical compartment), Gly-Sar 10 mmol/L, read-out: percentage of the amount added at the apical side at t = 0: recovery; for Papp at 120 min, 100 μmol/L: Caco-2, with Gly-Sar 10 mmol/L (apical), 10 mmol/L Gly-Sar apical (PepT1 inhibition), data from 120 min
Description: as §1
(§2) Caco-2 cells were cultured until reaching 50%–60% confluence (undifferentiated Caco-2 cells), followed by trypsinization. Then, cells were seeded at 3 × 10^4 cells per insert in 100 μL of complete culture medium into the transwell inserts of a 24-well transwell plate, and 600 μL of complete culture medium was added to the basolateral compartments. In both the apical and basolateral compartments, the medium was renewed every other day. After 2 weeks, the transepithelial electrical resistance (TEER) value was measured using a Millicell ERS-2 Electrical Resistance System (Burlington, MA, USA) every other day. Only wells with a TEER value of >400 Ω/cm^2 were used for transport experiments. Moreover, the TEER value was measured before and after the transport experiment to ascertain that the Caco-2 cell layer remained intact during the whole transport experiment.
(§3) Transport experiments were performed after 20 days of differentiation of the Caco-2 cells. The culture medium was replaced with HBSS (containing 1% (v/v) HEPES) 30 min prior to testing in both the apical and basolateral compartments. After the 30 min preincubation, 100 μL of HBSS containing a mixture of the 10 different AGEs including CML, CEL, GALA, argpyrimidine, MG-H1, GOLD, GOLA, MOLD, pentosidine, and pyrraline, each at 100 μmol/L, was added to the apical compartment after removing the preincubation medium, while the basolateral medium was replaced by 600 μL of HBSS. […] At 120 min, a 10 μL sample from the apical side was taken for calculating apical side retention (nontransported percentage).
(§4) The apparent permeability coefficient (Papp) value was calculated according to the methodology described by Yee.
(§5) AGEs were quantified by LC-MS using a Shimadzu Nexera XR LC-40D XR UPLC system (Kyoto, Japan) equipped with a UPLC Amide column (100 mm × 2.1 mm, 1.7 μm) without derivatization coupled with a Shimadzu LCMS-8045 triple quadrupole mass spectrometer (Kyoto, Japan). The analytical column was maintained at 40 °C throughout the quantification process. A multistep binary gradient system of water containing 0.1% (v/v) formic acid (solvent A) and acetonitrile containing 0.1% (v/v) formic acid (solvent B) was used. In the whole gradient program, the total proportion of solvents A and B is always equal to 100%. The gradient program was designed as follows: 75% solvent B to 12.5% solvent B from 0 to 10 min, followed by 12.5% solvent B from 10 to 11 min. […] The initial flow rate was set to 0.30 mL/min. Subsequently, it was reduced to 0.25 mL/min at 0.3 min, which was kept until 10 min. Afterward, there was a gradual decrease, reaching 0.15 mL/min at 11 min, and this rate was maintained until 12 min. […] Between 1 and 11 min of gradient running, the line was set to MS, and for the other time periods, the line was set to waste. The retention time and mass spectrometry parameters of individual AGEs are listed in Table S1 and the chromatograms of the samples are shown in Figure S1.

Caco-2 cell layer = assay: as above; format: in vitro ADME, Human; settings: mixture, each AGE 100 μmol/L, 2 h; for percentage of the amount added at the apical side at t = 0: apical side (nontransported) / percentage of the amount added at the apical side at t = 0: basolateral side (transported): standard treatment
Description: as §1, §2, §3, §4, §5

[2] = as above; format: in vitro ADME, Human; settings: human; for recovery at 2 h, 100 μmol/L: read-out: percentage of the amount added at the apical side at t = 0: recovery; for Papp at 120 min, 100 μmol/L: data from 120 min
Description: as §1, §2, §3, §4, §5

Caco-2 cell monolayer = assay: Accumulation of AGEs in the Caco-2 cell monolayer after transport experiment; format: in vitro ADME, Human; settings: mixture, each AGE 100 μmol/L, 2 h; for percentage of the amount added at the apical side at t = 0: accumulation (intracellular): standard treatment
Description: After the transport experiment, the cell monolayer on the inset membrane was washed three times with HBSS and three times with PBS. […] The samples were subsequently centrifuged at 16 000g for 20 min at 4 °C, and the supernatant was collected for further analysis by LC-MS.
as §5, with “The” for “AGEs were quantified by LC-MS using a Shimadzu Nexera XR LC-40D XR UPLC system (Kyoto, Japan) equipped with a UPLC Amide column (100 mm × 2.1 mm, 1.7 μm) without derivatization coupled with a Shimadzu LCMS-8045 triple quadrupole mass spectrometer (Kyoto, Japan). The”, “100%.” for “100%. The gradient program was designed as follows: 75% solvent B to 12.5% solvent B from 0 to 10 min, followed by 12.5% solvent B from 10 to 11 min.”

[3] = Caco-2, 4 °C, mixture, each AGE 100 μmol/L
[4] = Caco-2, cytochalasin D pretreatment, mixture, each AGE 100 μmol/L
[5] = Caco-2, standard treatment (37 °C), equimolar mixture of 10 AGEs, each 100 μmol/L apical
[6] = Caco-2, standard treatment, mixture, each AGE 100 μmol/L
[7] = Caco-2, cytochalasin D 1 μg/mL, 30 min apical preincubation, mixture, each AGE 100 μmol/L

Compound	recovery at 2 h, 100 μmol/L (PepT1)	Papp at 120 min, 100 μmol/L (PepT1)	percentage of the amount added at the apical side at t = 0: apical side (Caco-2 cell layer; 4 °C)	percentage of the amount added at the apical side at t = 0: basolateral side (Caco-2 cell layer; 4 °C)	percentage of the amount added at the apical side at t = 0: apical side (Caco-2 cell layer; Gly-Sar 10 mmol/L)	percentage of the amount added at the apical side at t = 0: basolateral side (Caco-2 cell layer; Gly-Sar 10 mmol/L)	percentage of the amount added at the apical side at t = 0: apical side (Caco-2 cell layer; cytochalasin D pretreatment)	percentage of the amount added at the apical side at t = 0: basolateral side (Caco-2 cell layer; cytochalasin D pretreatment)	percentage of the amount added at the apical side at t = 0: apical side (nontransported) (Caco-2 cell layer)	percentage of the amount added at the apical side at t = 0: basolateral side (transported) (Caco-2 cell layer)	recovery at 2 h, 100 μmol/L [2, 3]	recovery at 2 h, 100 μmol/L [2, 4]	Papp at 120 min, 100 μmol/L [2, 5]	recovery at 2 h, 100 μmol/L [2, 6]	Papp at 120 min, 100 μmol/L [2, 7]	percentage of the amount added at the apical side at t = 0: accumulation (Caco-2 cell monolayer; 4 °C)	percentage of the amount added at the apical side at t = 0: accumulation (Caco-2 cell monolayer; Gly-Sar 10 mmol/L)	percentage of the amount added at the apical side at t = 0: accumulation (Caco-2 cell monolayer; cytochalasin D pretreatment)	concentration that did not significantly affect cell viability [1]	Papp at 120 min, 100 μmol/L [2, 3]	other results
N[C@@H](CCCCn1c(C=O)ccc1CO)C(=O)O [pyrraline]	86.7 ± 2.8%	0.08 ×10⁻⁶ cm/s	86.9 ± 6.0 ^a %	0.1 ± 0.1 ^b %	86.4 ± 2.8 ^a %	0.2 ± 0.1 ^b %	89.4 ± 4.7 ^a %	0.8 ± 0.5 ^a %	88.6 ± 5.5 ^a %	0.2 ± 0.1 ^b %	87.1 ± 6.1%	90.3 ± 4.9%	0.1 ×10⁻⁶ cm/s	89 ± 5.6%	0.334 ×10⁻⁶ cm/s	0.0 ± 0.0 ^b %	0.1 ± 0.0 ^a %	0.2 ± 0.1 ^a %	–	–	effect on cell viability [1]: did not affect cell viability up to the highest concentration tested; percentage of the amount added at the apical side at t = 0: accumulation (intracellular) (Caco-2 cell monolayer): 0.1 ± 0.1 ^a %
Cc1nc(NCCC[C@H](N)C(=O)O)nc(C)c1O [argpyrimidine]	94.6 ± 5.2%	0.141 ×10⁻⁶ cm/s	87.1 ± 5.4 ^b %	0.2 ± 0.1 ^b %	93.8 ± 5.0 ^a %	0.3 ± 0.1 ^b %	93.3 ± 5.2 ^a %	0.9 ± 0.6 ^a %	91.2 ± 5.9 ^ab %	–	87.4 ± 5.4%	94.7 ± 5.4%	0.145 ×10⁻⁶ cm/s	91.8 ± 5.9%	0.395 ×10⁻⁶ cm/s	0.0 ± 0.0 ^b %	0.5 ± 0.2 ^a %	0.5 ± 0.3 ^a %	≤ 500 µM	0.099 ×10⁻⁶ cm/s	percentage of the amount added at the apical side at t = 0: accumulation (intracellular) (Caco-2 cell monolayer): 0.2 ± 0.2 ^b %
N[C@@H](CCCC[n+]1cccc2[nH]c(NCCC[C@H](N)C(=O)O)nc21)C(=O)O [pentosidine]	93 ± 10.5%	0.061 ×10⁻⁶ cm/s	83.2 ± 6.7 ^a %	0.1 ± 0.1 ^b %	92.8 ± 10.4 ^a %	0.1 ± 0.1 ^b %	95.0 ± 14.2 ^a %	0.7 ± 0.4 ^a %	89.1 ± 12.2 ^a %	–	83.3 ± 6.6%	92.6 ± 14.5%	0.083 ×10⁻⁶ cm/s	96.9 ± 12.3%	0.278 ×10⁻⁶ cm/s	0.0 ± 0.0 ^a %	0.0 ± 0.0 ^a %	0.0 ± 0.0 ^a %	≤ 500 µM	0.054 ×10⁻⁶ cm/s	–
Cc1c[n+](CCCC[C@H](N)C(=O)O)cn1CCCC[C@H](N)C(=O)O [MOLD, methylglyoxal–lysine dimer]	93.8 ± 7.2%	0.11 ×10⁻⁶ cm/s	83.0 ± 6.5 ^b %	0.1 ± 0.1 ^b %	93.5 ± 7.2 ^a %	0.3 ± 0.2 ^b %	90.8 ± 12.2 ^ab %	0.8 ± 0.6 ^a %	90.6 ± 7.7 ^ab %	0.2 ± 0.2 ^b %	83.1 ± 6.5%	91.7 ± 12.6%	0.098 ×10⁻⁶ cm/s	90.8 ± 7.9%	0.34 ×10⁻⁶ cm/s	0.0 ± 0.0 ^a %	0.0 ± 0.1 ^a %	0.0 ± 0.1 ^a %	≤ 1500 µM	0.057 ×10⁻⁶ cm/s	–
